For 17 compounds, Ki and IC50 results are on record in patent US20120329837A1, “CATHEPSIN INHIBITORS FOR TREATING MICROGLIA-MEDIATED NEURON LOSS IN THE CENTRAL NERVOUS SYSTEM” (ViroBay, Inc., priority 2011, published 2012).

Assay [1] addresses T1, Human cathepsin S (Homo sapiens, UniProt P25774). As to the kind of experiment: Cathepsin S Assay (Z-Val-Val-Arg-AMC hydrolysis). Type of assay: biochemical. The method, then:
Solutions of test compounds in varying concentrations were prepared in 10 μL of dimethyl sulfoxide (DMSO) and then diluted into assay buffer (40 μL, comprising: MES, 50 mM (pH 6.5); EDTA, 2.5 mM; and NaCl, 100 mM); β-mercaptoethanol, 2.5 mM; and BSA, […]. Human cathepsin S (0.05 pMoles in 25 μL of assay buffer) was added to the dilutions. The assay solutions were mixed for 5-10 seconds on a shaker plate, covered and incubated for 30 min at room temperature. Z-Val-Val-Arg-AMC (4 nMoles in 25 μL of assay buffer containing 10% DMSO) was added to the assay solutions and hydrolysis was followed spectrophotometrically (at λ 460 nm) for 5 min. Apparent inhibition constants (Ki) were calculated from the enzyme progress curves using standard mathematical models.

Assay [2] concerns the target T1, Human cathepsin S. As to the kind of experiment: Cathepsin S Assay (Z-Val-Val-Arg-AMC hydrolysis). The format is biochemical. The settings on record: Table 2; Enzyme CatS.

pIC50, pKi: −log10 of the molar value.

T1 sequence (P25774 115-331): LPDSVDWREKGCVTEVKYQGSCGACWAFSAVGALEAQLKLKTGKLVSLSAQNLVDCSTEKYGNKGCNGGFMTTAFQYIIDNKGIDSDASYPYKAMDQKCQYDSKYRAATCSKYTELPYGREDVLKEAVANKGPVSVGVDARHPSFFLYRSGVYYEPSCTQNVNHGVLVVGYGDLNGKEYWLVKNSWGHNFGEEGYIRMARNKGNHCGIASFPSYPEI

One may read the pKi as the Ki on a negative log10 scale, so that one unit is a factor of ten. A high value points to a small Ki. On to `CC(C)CS(=O)(=O)C[C@H](N[C@@H](c1ccc(F)cc1)C(F)(F)F)C(=O)NC1(C#N)CC1`, for which the pKi on Human cathepsin S [1] (text statement for drawn compounds) is > 8.00.

As usually defined, the pIC50 is the negative decadic logarithm of the IC50, by convention in mol/L. The low end stands for a high IC50, the high end for a low IC50. Consider `N#CC1(NC(=O)[C@H](CC(F)(F)CC2CC2)N[C@@H](c2ccccc2)C(F)(F)F)CC1`, for which, on Human cathepsin S [2], the negative-log IC50 (pIC50) was > 8.00.

Regarding `COc1ccc([C@H](N[C@@H](CC(F)(F)CC2CC2)C(=O)NC2(C#N)CC2)C(F)(F)F)cc1`, on Human cathepsin S [2], the pIC50 is > 8.00.

As for `CCCCC(F)(F)C[C@H](N[C@@H](c1ccc(F)cc1)C(F)(F)F)C(=O)NC1(C#N)CC1` [drawing 33], the negative logarithm of the Ki (pKi) on Human cathepsin S [1] (Table 1) was > 8.00.

In the case of `N#CC1(NC(=O)[C@H](CC(F)(F)CC2CC2)N[C@@H](c2ccc(C(F)(F)F)cc2)C(F)(F)F)CC1`, on Human cathepsin S [2], the pIC50 was > 8.00.

For `CC(C)CC(F)(F)C[C@H](N[C@@H](c1ccc(F)cc1)C(F)(F)F)C(=O)NC1(C#N)CC1` [drawing 40], the negative-log Ki (pKi) at Human cathepsin S [1] (Table 3) was > 7.70.

For the compound `CCCC(F)(F)C[C@H](N[C@@H](c1ccc(F)cc1)C(F)(F)F)C(=O)NC1(C#N)CC1` [drawing 32], the pKi at Human cathepsin S [1] (Table 1) is > 8.00.

Consider `CCC(F)(F)C[C@H](N[C@@H](c1ccc(F)cc1)C(F)(F)F)C(=O)NC1(C#N)CC1` [drawing 42], for which the negative logarithm of the Ki (pKi) on Human cathepsin S [1] (Table 3) is > 7.70.

Consider `CCC(F)(F)CC[C@H](N[C@@H](c1ccc(F)cc1)C(F)(F)F)C(=O)NC1(C#N)CC1`, for which the pKi at Human cathepsin S [1] (Table 3) is > 7.70.

For the compound `CCCC(F)(F)C[C@H](N[C@@H](c1ccc(F)cc1)C(F)(F)F)C(=O)NC1(C#N)CC1` [drawing 43], at Human cathepsin S [1] (Table 3), the negative logarithm of the Ki (pKi) was > 7.70.

Take `CCC(F)(F)C[C@H](N[C@@H](c1ccc(F)cc1)C(F)(F)F)C(=O)NC1(C#N)CC1` [drawing 30]: the pKi on Human cathepsin S [1] (Table 1) was > 8.00.

As for `CCCCC(F)(F)C[C@H](N[C@@H](c1ccc(F)cc1)C(F)(F)F)C(=O)NC1(C#N)CC1` [drawing 44], the pKi on Human cathepsin S [1] (Table 3) was > 7.70.

With `N#CC1(NC(=O)[C@H](CC(F)(F)CC2CC2)N[C@@H](c2ccc(F)cc2)C(F)(F)F)CC1`, the negative-log Ki (pKi) on Human cathepsin S [1] (Table 3) is > 7.70.

`N#CC1(NC(=O)[C@H](CC(F)(F)CC2CC2)N[C@@H](c2ccc(F)c(F)c2)C(F)(F)F)CC1`: on Human cathepsin S [2], the negative logarithm of the IC50 (pIC50) is > 8.00.

As for `CC(C)CC(F)(F)C[C@H](N[C@@H](c1ccc(F)cc1)C(F)(F)F)C(=O)NC1(C#N)CC1` [drawing 31], the negative logarithm of the Ki (pKi) at Human cathepsin S [1] (Table 1) is > 8.00.

As to `N#CC1(NC(=O)[C@H](CC(F)(F)Cc2ccccc2)N[C@@H](c2ccc(F)cc2)C(F)(F)F)CC1`, the pKi at Human cathepsin S [1] (Table 3) is > 7.70.

On to `N#CC1(NC(=O)[C@H](CC(F)(F)c2ccccc2)N[C@@H](c2ccc(F)cc2)C(F)(F)F)CC1`, for which the pKi at Human cathepsin S [1] (Table 3) was > 7.70.
